# Active and inactive are the calls of the source. No cut-off for these calls is given here.
# Columns and labels:
# 3T3-L1 [1] = assay: Anti-adipogenic activity in mouse 3T3-L1 cells assessed as lipid-lowering activity at 1 uM measured after 9 days by Oil Red O staining based microplate reader analysis relative to control; type: functional; details: time 9 day
# [2] = Half life in Sprague-Dawley rat at 2 mg/kg, iv administered for 24 hrs by LC-MS/MS analysis; type: ADME, organism-based; details: in vivo
# [3] = AUC (0 to t) in Sprague-Dawley rat at 2 mg/kg, iv administered for 24 hrs by LC-MS/MS analysis; type: ADME, organism-based; details: in vivo
# [4] = AUC (0 to infinity) in Sprague-Dawley rat at 2 mg/kg, iv administered for 24 hrs by LC-MS/MS analysis; type: ADME, organism-based; details: in vivo
# [5] = AUC (0 to infinity) in Sprague-Dawley rat at 20 mg/kg, po administered for 24 hrs by LC-MS/MS analysis; type: ADME, organism-based; details: in vivo
# [6] = Apparent oral clearance in Sprague-Dawley rat at 20 mg/kg, po administered for 24 hrs by LC-MS/MS analysis; type: ADME, organism-based; details: in vivo
# [7] = Oral bioavailability (0 to t) in Sprague-Dawley rat at 20 mg/kg administered for 24 hrs by LC-MS/MS analysis; type: ADME, organism-based; details: in vivo
# Adipocyte = assay: Anti-adipogenic activity against mouse […] Adipocytes assessed as lipid-lowering activity by Oil Red O staining based microplate reader analysis; type: functional, cell-based
# Mus musculus [8] = assay: Anti-obesity activity in high-fat and high-cholesterol diet induced C57BL/6J mouse assessed as attenuation of inflammation in liver at 20 mg/kg, ip administered everyday for 6 weeks by hematoxylin and eosin staining based microscopic analysis; type: functional, organism-based
# Mus musculus [9] = assay: Anti-obesity activity in high-fat and high-cholesterol diet induced C57BL/6J mouse assessed as reduction in liver damage by measuring reduction in cholinesterase level in serum at 20 mg/kg, ip administered every day for 6 weeks; type: functional, organism-based
# Mus musculus [10] = assay: Anti-obesity activity in high-fat and high-cholesterol diet induced C57BL/6J mouse assessed as reduction in liver damage by measuring reduction in LDH level in serum at 20 mg/kg, ip administered every day for 6 weeks; type: functional, organism-based
# 3T3-L1 [11] = assay: Anti-adipogenic activity against mouse 3T3-L1 cells assessed as increase in Mcad mRNA expression at 0.2 to 0.8 uM incubated for 3 days by RT-PCR analysis; type: functional, cell-based; details: dose 0.2-0.8 µM, time 3.0 day
# Mus musculus [12] = assay: Inhibition of lipid synthesis in high-fat and high-cholesterol diet induced C57BL/6J mouse assessed as downregulation of ACC protein expression at 20 mg/kg, ip administered for 6 weeks by Western blotting analysis; type: functional, organism-based
# Mus musculus [13] = assay: Inhibition of lipid synthesis in high-fat and high-cholesterol diet induced C57BL/6J mouse assessed as downregulation of FASN protein expression at 20 mg/kg, ip administered for 6 weeks by Western blotting analysis; type: functional, organism-based
# Mus musculus [14] = assay: Inhibition of lipid synthesis in high-fat and high-cholesterol diet induced C57BL/6J mouse assessed as downregulation of FABP4 protein expression at 20 mg/kg, ip administered for 6 weeks by Western blotting analysis; type: functional, organism-based
# 3T3-L1 [15] = assay: Anti-adipogenic activity against mouse 3T3-L1 cells assessed as decrease in ATP citrate lyase mRNA expression at 0.2 to 0.8 uM incubated for 3 days by RT-PCR analysis; type: functional, cell-based; details: dose 0.2-0.8 µM, time 3.0 day
smiles,measurement,setting,value
CC(=O)c1c(-c2nccc(NCCN3CCCC3)n2)[nH]c2ccccc12,Activity,3T3-L1 [1],100.7%
same,half-life,[2],1.9 h
same,AUC(0-t) at 24 h,[3],219 ng·h/mL
same,AUC(0-inf),[4],225 ng·h/mL
same,AUC(0-inf),[5],1470 ng·h/mL
same,CL/F,[6],255 mL/min/kg
same,bioavailability,[7],63%
same,EC50,Adipocyte,289 nM
same,Activity,Mus musculus [8],Active
same,Activity,Mus musculus [9],Active
same,Activity,Mus musculus [10],Active
same,Activity,3T3-L1 [11],Active
same,inhibition,Mus musculus [12],Active
same,inhibition,Mus musculus [13],Active
same,inhibition,Mus musculus [14],Active
same,Activity,3T3-L1 [15],Active

# Source: ChEMBL document CHEMBL5634089, “Design, synthesis and evaluation of 2-pyrimidinylindole derivatives as anti-obesity agents by regulating lipid metabolism” (Eur J Med Chem, 2023)
